# Laboratory results from patent publication US20140243411A1 (priority 2011, published 2014).
# How the values were obtained:
# [1] = In vitro C2E5 metabolism studies using SD rat skin S9 fractions; format: in vitro ADME
# [2] = tested on: rats contaminated with ^241Am; assay: Radionuclide decorporation efficacy study in rats contaminated with 241Am (Example 10): excretion, tissue content, liver and skeleton burden; format: in vivo, SD rats
# Method: All animal studies were conducted according to a protocol approved by the University of North Carolina at Chapel Hill Institutional Animal Care and Use Committee (IACUC). Ten-week-old adult female SD rats weighing from 200 to 300 g were used in these studies (Charles River Labs, Raleigh, N.C.). Food and water were given ad libitum. The animal room was kept at a controlled temperature (23° C.) and light cycle (light exposure from 8 AM to 8 PM). For the duration of the study, the rats were housed in metabolic cages individually with daily urine and feces collection until euthanasia on Day 7.
# To evaluate the efficacy of transdermal delivery of the C2E5 nonaqueous gel, a radionuclide decorporation efficacy study was conducted in rats contaminated with ^241Am. Adult female SD rats were anesthetized with 2-3% isoflurane. Dorsal skin between the cervical vertebrae and anterior thoracic vertebrae was clipped with caution before all animals were contaminated with [^241Am]-Americium nitrate solution (250 nCi, 0.1 mL) via an i.m. injection in anterior thigh muscle. The C2E5 nonaqueous gel was applied at dose of 1000 mg/kg using a cotton swap to a 6 cm^2 (2 cm×3 cm) area of the clipped dorsal region immediately after contamination. A jacket with plastic dorsal insert (VWR International) was placed on the rat to protect the gel application region. The mass of C2E5 gel applied was recorded for each animal to permit the actual dose determination. The animals were housed in metabolic cages individually after C2E5 treatment and were euthanized 7 days after contamination. Positive and negative controls included animals administered Ca-DTPA intravenously and animals without any treatment. The animals were observed once daily and their body weights recorded at pre-dose and prior to necropsy, Urine and feces were collected daily until euthanasia, when the liver, kidneys, both femurs and the muscle tissue from around the injection site were also collected. Cage washes were collected at the end of each experiment. As ˜35% of the decay of ^241Am is associated with photon emissions of 59.7 keV, ^241Am present in samples was quantified using a gamma counter (2470 Wizard 2, Perkin Elmer). The samples were counted for one minute using a 40-80 keV energy detection window and were background-corrected. Additionally, ^241Am activity was quantified in 2×0.1 mL aliquots of the dosing solution. For all samples, ^241Am content was expressed as a percentage of the initial dose.
# where % ID represents the percent of injected dose. Where data for both femurs were available, an estimate of the total skeletal burden was made using the method of Volf with modification in which the counts in the contra-lateral femur were multiplied by 19 and added to the counts in the ipsi-lateral femur. The modification for the literature method was due to higher ^241Am content in ipsi-lateral femur as a result of i.m. injection in anterior thigh muscle.
# Statistically significant differences among groups were determined using one-way ANOVA with Tukey's post hoc comparison. All measurements are expressed as mean±standard deviation (S.D.). The level of significance was set at p<0.05.
# [3] = rats, seven days following a single dose, Ca-DTPA 14 mg/kg i.v., C2E5 1000 mg/kg transdermal
# [4] = seven days after single dose, Ca-DTPA 14 mg/kg i.v., C2E5 1000 mg/kg transdermal gel
# [5] = seven days, 1000 mg/kg transdermal
smiles,measurement,setting,value
"CCOC(=O)CN(CCN(CC(=O)OCC)CC(=O)OCC)CCN(CC(=O)OCC)CC(=O)OCC [Formulation C2E5, penta-substituted ethyl ester of DTPA]",conversion of C2E5 to DTPA,[1],only minimally observed
same,Skeleton Burden (% of ID),"[2]; contra-lateral femur × 19 + ipsi-lateral femur, rats, seven days following a single dose, Ca-DTPA 14 mg/kg i.v. (n = 3), C2E5 1000 mg/kg transdermal",9.6 ± 0.9 % of ID
same,Ipsi-lateral femur content of 241Am,"[2]; rats, seven days following a single dose, Ca-DTPA 14 mg/kg i.v. (one animal excluded), C2E5 1000 mg/kg transdermal",0.54 ± 0.10 % of ID of ^241Am
same,% of Reduction over control (liver burden),[2]; [3],49.1%
same,% of Reduction over control (skeleton burden),[2]; [3],41.1%
same,Contra-lateral femur content of 241Am,[2]; [3],0.48 ± 0.05 % of ID of ^241Am
same,Kidney content of 241Am,[2]; [3],0.63 ± 0.07 % of ID of ^241Am
same,Liver Burden (% of ID),[2]; [3],8.4 ± 2.0 % of ID
same,Liver content of 241Am,[2]; [3],8.4 ± 2.0 % of ID of ^241Am
same,Muscle-contra content of 241Am,[2]; [3],0.0078 ± 0.0017 % of ID of ^241Am per gram of muscle-contra
same,Muscle-ipsi content of 241Am,[2]; [3],44.3 ± 2.0 % of ID of ^241Am
same,Pelt at injection site content of 241Am,[2]; [3],0.84 ± 0.66 % of ID of ^241Am
same,Total decorporation (% of ID of 241Am),[2]; [3],26.2 ± 2.7 % of ID of ^241Am
same,reduction of liver burden of ^241Am versus control group,"[2]; seven days after single dose, Ca-DTPA 14 mg/kg i.v., C2E5 1000 mg/kg transdermal",49.1%
same,% of Enhanced decorporation over control,[2]; [4],279.9%
same,Cumulative excretion of ^241Am In feces,[2]; [4],7.8 ± 1.2 % of ID
same,Cumulative excretion of ^241Am In urine,[2]; [4],18.4 ± 1.8 % of ID
same,Cumulative excretion of ^241Am Total,[2]; [4],26.2 ± 2.7 % of ID
same,^241Am burden in the ipsi-lateral femur versus no-treatment control,[2]; [5],statistically significant reduction
same,skeleton burden of ^241Am versus control group,[2]; [5],statistically significant reduction
